The NIST ThermoML archive (doi:10.1021/je025620p)
± gives the expanded uncertainty stated by the source.

Assay: isobaric coefficient of expansion
Details: 303.15 K, Liquid

Compound	isobaric coefficient of expansion (500 kPa)	isobaric coefficient of expansion (1000 kPa)	isobaric coefficient of expansion (2000 kPa)	isobaric coefficient of expansion (4000 kPa)	isobaric coefficient of expansion (6000 kPa)	isobaric coefficient of expansion (7000 kPa)	isobaric coefficient of expansion (8000 kPa)	isobaric coefficient of expansion (9000 kPa)	isobaric coefficient of expansion (10000 kPa)	isobaric coefficient of expansion (11000 kPa)	isobaric coefficient of expansion (12000 kPa)	isobaric coefficient of expansion (13000 kPa)	isobaric coefficient of expansion (16000 kPa)	isobaric coefficient of expansion (17000 kPa)	isobaric coefficient of expansion (18000 kPa)	isobaric coefficient of expansion (19000 kPa)	isobaric coefficient of expansion (20000 kPa)	isobaric coefficient of expansion (21000 kPa)	isobaric coefficient of expansion (22000 kPa)	isobaric coefficient of expansion (23000 kPa)	other results
C1CCCCC1 [cyclohexane]	0.00118 ± 2.9e-05 1/K	0.00117 ± 2.9e-05 1/K	0.00116 ± 2.8e-05 1/K	0.00114 ± 2.8e-05 1/K	0.00113 ± 2.8e-05 1/K	0.00112 ± 2.7e-05 1/K	0.00111 ± 2.7e-05 1/K	0.0011 ± 2.7e-05 1/K	0.00109 ± 2.7e-05 1/K	0.00109 ± 2.7e-05 1/K	0.00108 ± 2.6e-05 1/K	0.00107 ± 2.6e-05 1/K	0.00105 ± 2.6e-05 1/K	0.00104 ± 2.6e-05 1/K	0.00104 ± 2.5e-05 1/K	0.00103 ± 2.5e-05 1/K	0.00103 ± 2.5e-05 1/K	0.00102 ± 2.5e-05 1/K	0.00101 ± 2.5e-05 1/K	0.00101 ± 2.5e-05 1/K	isobaric coefficient of expansion (3000 kPa): 0.00115 ± 2.8e-05 1/K; isobaric coefficient of expansion (5000 kPa): 0.00113 ± 2.8e-05 1/K; isobaric coefficient of expansion (14000 kPa): 0.00106 ± 2.6e-05 1/K; isobaric coefficient of expansion (15000 kPa): 0.00106 ± 2.6e-05 1/K; isobaric coefficient of expansion (24000 kPa): 0.001 ± 2.5e-05 1/K; isobaric coefficient of expansion (25000 kPa): 0.000994 ± 2.4e-05 1/K; isobaric coefficient of expansion (26000 kPa): 0.000988 ± 2.4e-05 1/K; isobaric coefficient of expansion (27000 kPa): 0.000985 ± 2.4e-05 1/K; isobaric coefficient of expansion (28000 kPa): 0.000977 ± 2.4e-05 1/K; isobaric coefficient of expansion (29000 kPa): 0.000975 ± 2.4e-05 1/K; isobaric coefficient of expansion (30000 kPa): 0.00097 ± 2.4e-05 1/K
CCCCCC [hexane]	0.00135 ± 3.3e-05 1/K	0.00135 ± 3.3e-05 1/K	0.00133 ± 3.3e-05 1/K	0.0013 ± 3.2e-05 1/K	0.00126 ± 3.1e-05 1/K	0.00125 ± 3.1e-05 1/K	0.00124 ± 3e-05 1/K	0.00122 ± 3e-05 1/K	0.00121 ± 3e-05 1/K	0.0012 ± 2.9e-05 1/K	0.00119 ± 2.9e-05 1/K	0.00118 ± 2.9e-05 1/K	0.00115 ± 2.8e-05 1/K	0.00114 ± 2.8e-05 1/K	0.00113 ± 2.8e-05 1/K	0.00112 ± 2.7e-05 1/K	0.00111 ± 2.7e-05 1/K	0.0011 ± 2.7e-05 1/K	0.00109 ± 2.7e-05 1/K	0.00108 ± 2.7e-05 1/K	isobaric coefficient of expansion (2700 kPa): 0.00132 ± 3.2e-05 1/K; isobaric coefficient of expansion (4900 kPa): 0.00129 ± 3.2e-05 1/K; isobaric coefficient of expansion (14100 kPa): 0.00116 ± 2.9e-05 1/K; isobaric coefficient of expansion (14500 kPa): 0.00116 ± 2.8e-05 1/K; isobaric coefficient of expansion (24500 kPa): 0.00107 ± 2.6e-05 1/K; isobaric coefficient of expansion (25000 kPa): 0.00107 ± 2.6e-05 1/K; isobaric coefficient of expansion (26000 kPa): 0.00106 ± 2.6e-05 1/K; isobaric coefficient of expansion (27000 kPa): 0.00105 ± 2.6e-05 1/K; isobaric coefficient of expansion (28000 kPa): 0.00104 ± 2.6e-05 1/K; isobaric coefficient of expansion (29000 kPa): 0.00104 ± 2.5e-05 1/K; isobaric coefficient of expansion (30000 kPa): 0.00103 ± 2.5e-05 1/K
CCCCCCC [heptane]	0.00125 ± 3.1e-05 1/K	0.00124 ± 3e-05 1/K	0.00123 ± 3e-05 1/K	0.00121 ± 3e-05 1/K	0.00118 ± 2.9e-05 1/K	0.00117 ± 2.9e-05 1/K	0.00116 ± 2.8e-05 1/K	0.00115 ± 2.8e-05 1/K	0.00114 ± 2.8e-05 1/K	0.00113 ± 2.8e-05 1/K	0.00112 ± 2.7e-05 1/K	0.00111 ± 2.7e-05 1/K	0.00108 ± 2.7e-05 1/K	0.00108 ± 2.6e-05 1/K	0.00107 ± 2.6e-05 1/K	0.00106 ± 2.6e-05 1/K	0.00105 ± 2.6e-05 1/K	0.00104 ± 2.6e-05 1/K	0.00104 ± 2.5e-05 1/K	0.00103 ± 2.5e-05 1/K	isobaric coefficient of expansion (3000 kPa): 0.00122 ± 3e-05 1/K; isobaric coefficient of expansion (5000 kPa): 0.00119 ± 2.9e-05 1/K; isobaric coefficient of expansion (14000 kPa): 0.0011 ± 2.7e-05 1/K; isobaric coefficient of expansion (15000 kPa): 0.00109 ± 2.7e-05 1/K; isobaric coefficient of expansion (24000 kPa): 0.00102 ± 2.5e-05 1/K; isobaric coefficient of expansion (25000 kPa): 0.00101 ± 2.5e-05 1/K; isobaric coefficient of expansion (26000 kPa): 0.00101 ± 2.5e-05 1/K; isobaric coefficient of expansion (27000 kPa): 0.001 ± 2.5e-05 1/K; isobaric coefficient of expansion (28000 kPa): 0.000995 ± 2.4e-05 1/K; isobaric coefficient of expansion (29000 kPa): 0.000988 ± 2.4e-05 1/K; isobaric coefficient of expansion (30000 kPa): 0.000983 ± 2.4e-05 1/K
Cc1ccccc1 [toluene]	0.00104 ± 2.6e-05 1/K	0.00104 ± 2.5e-05 1/K	0.00103 ± 2.5e-05 1/K	0.00102 ± 2.5e-05 1/K	0.00101 ± 2.5e-05 1/K	0.001 ± 2.5e-05 1/K	0.000996 ± 2.4e-05 1/K	0.00099 ± 2.4e-05 1/K	0.000984 ± 2.4e-05 1/K	0.000977 ± 2.4e-05 1/K	0.000973 ± 2.4e-05 1/K	0.000967 ± 2.4e-05 1/K	0.000952 ± 2.3e-05 1/K	0.000947 ± 2.3e-05 1/K	0.000942 ± 2.3e-05 1/K	0.000937 ± 2.3e-05 1/K	0.000932 ± 2.3e-05 1/K	0.000928 ± 2.3e-05 1/K	0.000923 ± 2.3e-05 1/K	0.000918 ± 2.2e-05 1/K	isobaric coefficient of expansion (3000 kPa): 0.00103 ± 2.5e-05 1/K; isobaric coefficient of expansion (5000 kPa): 0.00101 ± 2.5e-05 1/K; isobaric coefficient of expansion (14000 kPa): 0.000962 ± 2.4e-05 1/K; isobaric coefficient of expansion (15000 kPa): 0.000957 ± 2.3e-05 1/K; isobaric coefficient of expansion (24000 kPa): 0.000914 ± 2.2e-05 1/K; isobaric coefficient of expansion (25000 kPa): 0.000908 ± 2.2e-05 1/K; isobaric coefficient of expansion (26000 kPa): 0.000904 ± 2.2e-05 1/K; isobaric coefficient of expansion (27000 kPa): 0.000903 ± 2.2e-05 1/K; isobaric coefficient of expansion (28000 kPa): 0.000896 ± 2.2e-05 1/K; isobaric coefficient of expansion (29000 kPa): 0.000896 ± 2.2e-05 1/K; isobaric coefficient of expansion (30000 kPa): 0.000892 ± 2.2e-05 1/K
